For orientation: CC50 means the concentration giving 50% cytotoxicity. As usually defined, the EC50 is the concentration giving half of the maximal effect.

The nature of data set [1]: Cell viability / cytotoxicity by MTT method. Type of data set: cell-based. The conditions noted are these: human; Huh7.5.1 cells, MTT; concentration required to reduce cell proliferation by 50%; average of duplicate determinations; read-out: CC50. The procedure:
(§1) The inhibition of HCV by all synthesized quercetin derivatives was evaluated following a previously reported procedure. All newly synthesized compounds were tested in authentic HCV infection/replication system in the human hepatoma cell lines Huh7.5.1 using mycophenolic acid (MPA) as control compound. The cytotoxicity effect of the test compounds was also evaluated in the same cell line by MTT method. Antiviral effect and cytotoxicity effect were summarized as EC50 and CC50 respectively, as well as the selective index (SI) which is the ratio of CC50 to EC50. The stability of quercetin-3-O-ester compounds were also tested in the same buffer as the antiviral activity assay at 37 °C and the hydrolysate was measured by HPLC.
After the EGFP signal was read, cell viability was measured in the same plate by the MTT [3-(4,5-dimethylthiazol-2-yl)-2,5-diphenyltetrazolium bromide; Sigma-Aldrich, St. Louis, MO, USA] method. Briefly, MTT (1 mg/mL) was dissolved in PBS. Cell culture supernatants were removed and replaced with MTT and further cultured for 4 h; cells were then lysed with 10% sodium dodecyl sulfate (SDS), 50% N,N-dimethylformamide, pH 7.2. OD570 values were read. The percentage of cell death was calculated against the control well without compounds.
A general note: Tetrazolium assays rely on reduction of a dye to a coloured formazan, in cell work by metabolically active cells.

The subject of data set [2] is HCV infectious virus J399EM. On the set-up: method as in PMID 22445328. The conditions noted are these: anti-HCV activity of quercetin, earlier work of the authors; cited from earlier work.
The subject of data set [3] is HCV infectious virus J399EM. Kind of data set: Anti-HCV assay in authentic HCV infection/replication system (J399EM EGFP reporter virus) in Huh7.5.1 cells. It counts as cell-based, hepatitis C virus (JFH1-derived, genotype 2a). The conditions noted are these: ratio of CC50 to EC50, Huh7.5.1 cells. As for the experimental part: as §1
The biological assays were performed following a previously reported procedure. The Huh7.5.1 cell line and the HCV infectious virus J399EM were kindly provided by Xin-Wen Chen, Wuhan Institute of Virology, Chinese Academy of Sciences. Huh7.5.1 cells were cultured in Dulbecco’s modified Eagle’s medium (DMEM) containing 10% (v/v) fetal bovine serum, 0.5 mg/mL G418, 100 IU/mL penicillin, and […].
J399EM is an infectious HCV virus derived from the JFH1 virus (genotype 2a) by insertion of enhanced green fluorescent protein (EGFP) into the HCV NS5A region. The establishment of the infectious J399EM HCV virus has been described previously. J399EM was propagated in Huh7.5.1 cells. Briefly, Huh7.5.1 cells were infected with J399EM at MOI = 0.1 and cultured for 4 days. Culture supernatant was collected and filtered through a 0.45 μm membrane and stored at −80 °C as virus stock. Virus titer was tested in Huh7.5.1 cells. Stocks were serially diluted, and the foci forming units (FFU) were determined as the number of fluorescent colonies formed in infected Huh7.5.1.
All the compounds were first dissolved in DMSO at 50 mM, and then diluted to various concentrations (50 μM, 25 μM, 12.5 μM, 6.3 μM and 3.1 μM). Approximately 1 × 10^4 Huh7.5.1 cells per well were plated in an opaque 96-well tissue culture plate (Costar 3904). The next day, the medium was replaced by J399EM virus at an MOI of 0.3. Four hours later, the virus inoculum was removed and medium containing different concentrations of compounds was added. After an additional 72 h of incubation, the culture medium was removed and the EGFP autofluorescence was measured by using a […] with excitation at 488 nm and emission at 516 nm. Compounds and controls were performed in duplicate and each experiment repeated independently at least twice.

The test system of data set [4] is HCV RdRp. More on the design: method as in PMID 25053847. The conditions noted are these: at the concentration of 20 μM in an enzyme assay; cited from earlier work.

SMILES strings stand for the structures. Some results are limits rather than exact numbers.

For `O=c1c(O)c(-c2ccc(O)c(O)c2)oc2cc(O)cc(O)c12` [Compound 2, quercetin], the 50% cytotoxic concentration (CC50) in data set [1] is more than 50 µM. Also, in data set [2], the EC50 is 19.8 µM. In data set [3], the “SI (selectivity index)” value is recorded as more than 2.5. Moreover, the “inhibition of HCV RdRp” value in data set [4] is listed as 83.7%.

The values are drawn from paper PMC6272327, “Discovery of Metal Ions Chelator Quercetin Derivatives with Potent Anti-HCV Activities” (Molecules, 2015).
